Results as given in the NIST ThermoML archive (doi:10.1021/je500395f).

Details: Fluid (supercritical or subcritical phases), Coaxial cylinder method

CCC [propane]
Details | thermal conductivity [W/m/K]
371.05 K, 4555 kPa | 0.06855
371.05 K, 4560 kPa | 0.06824
371.05 K, 4590 kPa | 0.06782
371.05 K, 4715 kPa | 0.06718
371.05 K, 4720 kPa | 0.06705
371.05 K, 4840 kPa | 0.06668
371.05 K, 5000 kPa | 0.06707
371.05 K, 5200 kPa | 0.06747
371.05 K, 5350 kPa | 0.06773
371.05 K, 5672 kPa | 0.06829
371.05 K, 6100 kPa | 0.06917
371.05 K, 6200 kPa | 0.06927
371.05 K, 6800 kPa | 0.06996
371.05 K, 7500 kPa | 0.07147
371.05 K, 8500 kPa | 0.07339
371.05 K, 8900 kPa | 0.07424
371.05 K, 9500 kPa | 0.07498
371.05 K, 11600 kPa | 0.07756
371.97 K, 3025 kPa | 0.03301
371.97 K, 3070 kPa | 0.03313
371.97 K, 3701 kPa | 0.03655
371.97 K, 3803 kPa | 0.03783
371.97 K, 4286 kPa | 0.04983
371.97 K, 4294 kPa | 0.05055
371.97 K, 4312 kPa | 0.05267
371.97 K, 4324 kPa | 0.05459
371.97 K, 4336 kPa | 0.05724
371.97 K, 4342 kPa | 0.05915
371.97 K, 4348 kPa | 0.06124
371.97 K, 4354 kPa | 0.06361
371.97 K, 4362 kPa | 0.0676
371.97 K, 4366 kPa | 0.07025
371.97 K, 4368 kPa | 0.07149
371.97 K, 4370 kPa | 0.07274
371.97 K, 4374 kPa | 0.07488
371.97 K, 4378 kPa | 0.07749
371.97 K, 4380 kPa | 0.07923
371.97 K, 4382 kPa | 0.07986
371.97 K, 4384 kPa | 0.08174
371.97 K, 4386 kPa | 0.08308
371.97 K, 4388 kPa | 0.08481
371.97 K, 4390 kPa | 0.08662
371.97 K, 4392 kPa | 0.08774
371.97 K, 4394 kPa | 0.08968
371.97 K, 4396 kPa | 0.09177
371.97 K, 4398 kPa | 0.09312
371.97 K, 4400 kPa | 0.09429
371.97 K, 4402 kPa | 0.09604
371.97 K, 4404 kPa | 0.09739
371.97 K, 4406 kPa | 0.09807
371.97 K, 4408 kPa | 0.09854
371.97 K, 4410 kPa | 0.09918
371.97 K, 4412 kPa | 0.09961
371.97 K, 4414 kPa | 0.09999
371.97 K, 4416 kPa | 0.1001
371.97 K, 4418 kPa | 0.1001
371.97 K, 4420 kPa | 0.09965
371.97 K, 4425 kPa | 0.09676
371.97 K, 4430 kPa | 0.09369
371.97 K, 4435 kPa | 0.09161
371.97 K, 4440 kPa | 0.08782
371.97 K, 4445 kPa | 0.08423
371.97 K, 4450 kPa | 0.08092
371.97 K, 4455 kPa | 0.07787
371.97 K, 4460 kPa | 0.07642
371.97 K, 4465 kPa | 0.07505
371.97 K, 4475 kPa | 0.07322
371.97 K, 4490 kPa | 0.07226
371.97 K, 4500 kPa | 0.07021
371.97 K, 4505 kPa | 0.06997
371.97 K, 4530 kPa | 0.06877
371.97 K, 4550 kPa | 0.06759
371.97 K, 4570 kPa | 0.06665
371.97 K, 4650 kPa | 0.06636
371.97 K, 4740 kPa | 0.06618
371.97 K, 4850 kPa | 0.06602
371.97 K, 5200 kPa | 0.06643
371.97 K, 5900 kPa | 0.06801
371.97 K, 6400 kPa | 0.06923
371.97 K, 6800 kPa | 0.07002
371.97 K, 7600 kPa | 0.07152
371.97 K, 8810 kPa | 0.07269
371.97 K, 15100 kPa | 0.08067
373.2 K, 3103 kPa | 0.03319
373.2 K, 3450 kPa | 0.03488
373.2 K, 3780 kPa | 0.03746
373.2 K, 3820 kPa | 0.03788
373.2 K, 4030 kPa | 0.04085
373.2 K, 4060 kPa | 0.04149
373.2 K, 4150 kPa | 0.04361
373.2 K, 4230 kPa | 0.04611
373.2 K, 4270 kPa | 0.04756
373.2 K, 4346 kPa | 0.05156
373.2 K, 4384 kPa | 0.05498
373.2 K, 4404 kPa | 0.05788
373.2 K, 4416 kPa | 0.05996
373.2 K, 4428 kPa | 0.0626
373.2 K, 4436 kPa | 0.06499
373.2 K, 4444 kPa | 0.06754
373.2 K, 4450 kPa | 0.06964
373.2 K, 4452 kPa | 0.07037
373.2 K, 4462 kPa | 0.07388
373.2 K, 4466 kPa | 0.07545
373.2 K, 4470 kPa | 0.07719
373.2 K, 4476 kPa | 0.07958
373.2 K, 4482 kPa | 0.08175
373.2 K, 4484 kPa | 0.0824
373.2 K, 4486 kPa | 0.08306
373.2 K, 4494 kPa | 0.08512
373.2 K, 4496 kPa | 0.08547
373.2 K, 4498 kPa | 0.08584
373.2 K, 4500 kPa | 0.0862
373.2 K, 4502 kPa | 0.08638
373.2 K, 4504 kPa | 0.08656
373.2 K, 4506 kPa | 0.08685
373.2 K, 4508 kPa | 0.08693
373.2 K, 4510 kPa | 0.0873
373.2 K, 4518 kPa | 0.08768
373.2 K, 4524 kPa | 0.08658
373.2 K, 4530 kPa | 0.08552
373.2 K, 4536 kPa | 0.08417
373.2 K, 4544 kPa | 0.08185
373.2 K, 4550 kPa | 0.07994
373.2 K, 4556 kPa | 0.07815
373.2 K, 4564 kPa | 0.07643
373.2 K, 4568 kPa | 0.07532
